Patent publication US9216215B2, “Adjuvant system for vaccine adjuvant” (VAXFORM LLC, priority 2010, dated 2015)

Experiments:
[1] = Linkage of CTL receptor agonist to aluminum adjuvant (FIG. 2); type: physicochemical; conditions: aluminum oxyhydroxide
Excerpt: However, monosaccharides can be modified by a chemical group including but not limited to fluoride, phosphate, sulfate, or carbonate group which permits a ligand exchange linkage of the molecule to the aluminum-containing adjuvant. Method for modifying saccharides by addition of fluoride, phosphate, sulfate, or carbonate groups is well known in the art (Cantos, et al. Biochem. J. (1993) 289: 155-160; Carbohydrate Chemistry, Royal Society of Chemistry, Ed. R D Guthrie (1968)). This is illustrated in FIG. 2 utilizing mannose as the CTL receptor agonist and aluminum oxyhydroxide. […] However, addition of a phosphate group at the 1 position of mannose (MIP) results in approximately 100% linkage of the CTL agonist to the aluminum adjuvant.
Another method to the increased avidity of the saccharide for the aluminum adjuvant particle is polymerization. For instance the avidity of the saccharide for the aluminum adjuvant particle may be increased by increasing the size of the saccharide by polymerization to produce a polysaccharide. The increase avidity for the aluminum adjuvant is due to the larger number of interactions of a polysaccharide as compared to a monosaccharide to allow for the stable linkage of the polysaccharide agonist to the aluminum adjuvant particle. […]

[2] = Stability of CTL agonist linkage to aluminum oxyhydroxide on exposure to phosphate (FIG. 3A, 3B); type: physicochemical; conditions: 50 mM phosphate pH 7.4 for 30 minutes, absence of antigen
Excerpt: It is important to maintain the stability of the CTL agonist linkage to the aluminum particle upon exposure to body fluid following administration. Components of interstitial fluid such as phosphate, citrate, and protein have the potential to remove the linkage of the CTL agonist with aluminum-containing adjuvants. The resulting soluble CTL agonist may adversely impact the immune response. FIG. 3A illustrates that MIP as well as mannan maintain approximately 100% linkage with aluminum oxyhydroxide when exposed to 50 mM phosphate pH 7.4 for 30 minutes in the absence of antigen.

O=P(O)(O)OC1O[C@H](CO)[C@@H](O)[C@H](O)[C@@H]1O (stereo partly shown) [MIP, Mannose-1-phosphate]
linkage of the CTL agonist to the aluminum adjuvant [1]: approximately 100% | linkage with aluminum oxyhydroxide maintained [2]: approximately 100%

mannan
linkage of the CTL agonist to the aluminum adjuvant [1]: approximately 100% | linkage with aluminum oxyhydroxide maintained [2]: approximately 100%
